Among the test systems are SK-MEL-28 melanoma; HCT-116 colon; UO-31 renal; TK-10 renal; SF-268 CNS; UACC-62 melanoma; IGROV1 ovarian; NCI-H460 lung; PC-3 prostate; CAKI-1 renal.
Holding throughout (assay): NCI tumour cell line growth inhibition, 48 h

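Where inhibition never reached the appropriate level, the endpoint shown equals the highest concentration tested. Otherwise, values were interpolated linearly from a five-concentration, 48-hour dose response in 96-well plates. At the GI50, growth is halved. TGI: total growth inhibition.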

Turning to `O=Cc1ccc(O)c2ncccc12`, the GI50 in the experiment with SK-MEL-28 melanoma is 7.14 µM; in the experiment on HCT-116 colon, 2.54 µM; in the experiment with UO-31 renal, 4.96 µM; with TK-10 renal, 17.4 µM; in the experiment with SF-268 CNS it was 2.65 µM; in the experiment on UACC-62 melanoma, 3.58 µM. Moreover, the GI50 with IGROV1 ovarian was 3.32 µM; in the experiment with NCI-H460 lung it was 3.47 µM; in the experiment on PC-3 prostate, 4.01 µM; in the experiment with CAKI-1 renal it was 7.29 µM. Moreover, the TGI is more than 53.3 µM in the experiment on SK-MEL-28 melanoma; 11.7 µM in the experiment on HCT-116 colon; 36.9 µM in the experiment on UO-31 renal; 52.5 µM in the experiment on TK-10 renal; more than 100 µM in the experiment with SF-268 CNS; 27.6 µM in the experiment with UACC-62 melanoma. The TGI with IGROV1 ovarian was 16.8 µM; in the experiment on NCI-H460 lung it was 17.2 µM; in the experiment with PC-3 prostate, more than 46.6 µM; in the experiment on CAKI-1 renal it was 35.4 µM.

As to `CC(C)C[C@@H]1NC(=O)[C@@H]2CCCN2C(=O)[C@@H]2CCCN2C(=O)[C@H](CC(C)C)NC(=O)[C@H](CO)NC(=O)[C@H](CCCCN)NC(=O)[C@H]([C@H](C)O)NC(=O)[C@@H]2CCCC[C@@H](NC1=O)C(=O)N[C@@H](Cc1ccccc1)C(=O)N1CCC[C@H]1C(=O)N[C@@H](CC(=O)O)C(=O)NCC(=O)N[C@@H](CCCN=C(N)N)C(=O)N2`, the GI50 in the experiment on SK-MEL-28 melanoma, in the experiment with HCT-116 colon, with UO-31 renal, in the experiment on TK-10 renal, in the experiment with SF-268 CNS and in the experiment with UACC-62 melanoma was more than 50 µM throughout. Besides, the GI50 in the experiment on IGROV1 ovarian, in the experiment on NCI-H460 lung, in the experiment with PC-3 prostate and with CAKI-1 renal was more than 50 µM each time. In addition, the TGI in the experiment on SK-MEL-28 melanoma, in the experiment on HCT-116 colon, in the experiment on UO-31 renal, in the experiment with TK-10 renal, in the experiment with SF-268 CNS and in the experiment on UACC-62 melanoma was more than 50 µM throughout. Moreover, the TGI in the experiment with IGROV1 ovarian, in the experiment on NCI-H460 lung, in the experiment with PC-3 prostate and in the experiment on CAKI-1 renal was more than 50 µM in each case.

On to `O=C(CN1C(=O)c2ccccc2C1=O)C(O)CN1C(=O)c2ccccc2C1=O` (stereo not given), for which the TGI is more than 100 µM with SK-MEL-28 melanoma; more than 100 µM in the experiment with HCT-116 colon; more than 100 µM in the experiment on UO-31 renal; more than 100 µM in the experiment on TK-10 renal; 88.1 µM in the experiment on SF-268 CNS; more than 100 µM with UACC-62 melanoma. Further, the TGI in the experiment with IGROV1 ovarian, in the experiment with NCI-H460 lung, in the experiment on PC-3 prostate and with CAKI-1 renal was more than 100 µM each time.

On to `COCCNC(=O)c1ccc(-c2nc3ccc4[nH]ncc4c3c3c2CCCC3)cc1`, for which the GI50 in the experiment with SK-MEL-28 melanoma is 2.49 µM; in the experiment on HCT-116 colon, 1.2 µM; with UO-31 renal, 1.58 µM; in the experiment with TK-10 renal, 1.09 µM; with SF-268 CNS, 2.22 µM; with UACC-62 melanoma, 1.58 µM. Also, the GI50 in the experiment with IGROV1 ovarian was 1.24 µM; in the experiment on NCI-H460 lung, 1.86 µM; in the experiment on PC-3 prostate it was 2.96 µM; with CAKI-1 renal it was 0.689 µM. In addition, the TGI in the experiment with SK-MEL-28 melanoma was 98.2 µM; in the experiment on HCT-116 colon, more than 100 µM; in the experiment on UO-31 renal it was 5.74 µM; in the experiment on TK-10 renal it was more than 100 µM; in the experiment with SF-268 CNS, 39.7 µM; in the experiment on UACC-62 melanoma, 13.1 µM. Also, the TGI was 10.9 µM in the experiment with IGROV1 ovarian, 27.1 µM in the experiment on NCI-H460 lung, more than 100 µM in the experiment with PC-3 prostate and 7.29 µM in the experiment with CAKI-1 renal.

`OCCNCCNc1c2ccccc2nc2oc3ccccc3c12`: the GI50 in the experiment with SK-MEL-28 melanoma was 12.1 µM; in the experiment with HCT-116 colon it was 4.61 µM; in the experiment on UO-31 renal, 7.28 µM; in the experiment with TK-10 renal it was 22.4 µM; in the experiment on SF-268 CNS, 7.33 µM; in the experiment on UACC-62 melanoma, 14.1 µM. The GI50 in the experiment with IGROV1 ovarian was 7.3 µM; in the experiment with NCI-H460 lung, 4.44 µM; in the experiment on PC-3 prostate, 9.73 µM; with CAKI-1 renal, 11.9 µM. Moreover, the TGI in the experiment with SK-MEL-28 melanoma was determined as 26.5 µM; in the experiment on HCT-116 colon, 16.2 µM; with UO-31 renal it was 34.4 µM; in the experiment on TK-10 renal, 86.8 µM; in the experiment on SF-268 CNS, 28.3 µM; in the experiment on UACC-62 melanoma, 31.5 µM. Moreover, the TGI was found to be 38.3 µM in the experiment with IGROV1 ovarian, 17.5 µM in the experiment with NCI-H460 lung, 34.7 µM with PC-3 prostate and 56.4 µM in the experiment with CAKI-1 renal.

Regarding `CCCCCCCCCCCC[n+]1ccc(C(N)=O)cc1`, the GI50 was 4.33 µM in the experiment on SK-MEL-28 melanoma; 4.58 µM in the experiment with HCT-116 colon; 9.08 µM with UO-31 renal; 1.73 µM in the experiment with TK-10 renal; 2.78 µM in the experiment with SF-268 CNS; 2.74 µM with UACC-62 melanoma. The GI50 is 1.4 µM in the experiment with IGROV1 ovarian, 3.81 µM in the experiment on NCI-H460 lung, 0.71 µM in the experiment on PC-3 prostate and 10.7 µM with CAKI-1 renal. The TGI in the experiment with SK-MEL-28 melanoma was determined as 15 µM; in the experiment with HCT-116 colon, 20.5 µM; in the experiment on UO-31 renal it was 24.7 µM; in the experiment on TK-10 renal, 4.26 µM; in the experiment with SF-268 CNS, 11.5 µM; with UACC-62 melanoma, 11.6 µM. For the same compound, the TGI in the experiment with IGROV1 ovarian was determined as 3.5 µM; in the experiment with NCI-H460 lung, 14.1 µM; in the experiment on PC-3 prostate, 3.55 µM; in the experiment on CAKI-1 renal, 26.2 µM.

On to `Oc1c(N=Nc2ccccc2)c2ccccc2c2ccc3ccccc3c12`, for which the TGI in the experiment with SK-MEL-28 melanoma, in the experiment on HCT-116 colon, with UO-31 renal, in the experiment on TK-10 renal, with SF-268 CNS and with UACC-62 melanoma was more than 100 µM in each case. Besides, the TGI in the experiment with IGROV1 ovarian, in the experiment on NCI-H460 lung, with PC-3 prostate and in the experiment on CAKI-1 renal was more than 100 µM in each case.

In the case of `N#CC1=C(N)Oc2c(sc3c(F)cccc23)C1c1ccc(F)cc1` (stereo not given), the GI50 in the experiment on SK-MEL-28 melanoma is 1.91 µM; with HCT-116 colon, 0.492 µM; with UO-31 renal, 1.27 µM; with TK-10 renal, 8.24 µM; in the experiment with SF-268 CNS, 1.13 µM; in the experiment with UACC-62 melanoma, 0.551 µM. Besides, the GI50 was 0.621 µM in the experiment on IGROV1 ovarian, 0.415 µM with NCI-H460 lung, 0.892 µM in the experiment on PC-3 prostate and 0.508 µM in the experiment on CAKI-1 renal. Further, the TGI in the experiment on SK-MEL-28 melanoma worked out at 19.7 µM; in the experiment with HCT-116 colon it was 13 µM; in the experiment on UO-31 renal it was 12.1 µM; in the experiment on TK-10 renal, 25.3 µM; in the experiment with SF-268 CNS, 15.3 µM; in the experiment with UACC-62 melanoma, 14.9 µM. For the same compound, the TGI came to 14.7 µM with IGROV1 ovarian, 7.77 µM with NCI-H460 lung, 16.2 µM with PC-3 prostate and 15.9 µM in the experiment on CAKI-1 renal.
